Here are results for 2 compounds from patent US20260158046A1, “TREATMENT OF NEURODEGENERATIVE DISORDERS WITH DOXYCYCLINE ALONE OR IN COMBINATION WITH LEVODOPA” (Biohaven Therapeutics Ltd., priority 2023, published 2026).

A value given as a limit tells only on which side of the number the result lay.

What all share (format): in vivo, human
In one data set the test system is seborrheic dermatitis. Description: Case report, Patient A: seborrheic dermatitis under doxycycline. An excerpt: (§1) Patient A is a person diagnosed with PD approximately one and a half years earlier and treated with levodopa. […] The patient also experienced intermittent irritable bowel disorder symptoms.
Data set [1] in a line: Case report, Patient A: tolerability of doxycycline. The conditions noted are these: after two additional months on doxycycline.
Text: as §1

The next data set has as its system PD tremor. As to the kind of experiment: Case report, Patient A: PD tremor under doxycycline added to levodopa. To be noted: prior to initiation of doxycycline.
Text: as §1

For `C[C@H]1c2cccc(O)c2C(=O)C2=C(O)[C@]3(O)C(=O)C(C(N)=O)=C(O)[C@@H](N(C)C)[C@@H]3[C@@H](O)[C@@H]21` [doxycycline, Doxycycline], in the data set on seborrheic dermatitis (PD patient on levodopa, doxycycline 100 mg tablet once a day, first course), the “time to resolution of seborrheic dermatitis” value is no more than 3 weeks. In the data set on seborrheic dermatitis (doxycycline discontinued after approximately 8 weeks (first de-challenge)), the “time to recurrence of seborrheic dermatitis after discontinuation” value is reported as no more than 2 weeks. Moreover, the “adverse event leading to stop of treatment” value in data set [1] was “nausea”.

`N[C@@H](Cc1ccc(O)c(O)c1)C(=O)O` [levodopa, Levodopa]: in the data set with PD tremor, the “interval between required levodopa dose increases (worsening PD, most notably tremor)” value is roughly 3 months.
